Results taken from PubChem BioAssay AID2060899 (Molecular Pharmacology Branch, DTP, NCI, 2025).

Test system: 565726-208-R1-J5-PDC complex spheroids, growth inhibition
Assay: Anticancer human tumor 565726-208-R1-J5-PDC patient-derived pancreatic adenocarcinoma cell line growth inhibition [RAS]
Conditions: for IC50: curve of first compound; for viability, T/C: stronger effect = lower value
Procedure, shortened: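 Agents were tested in combination matrices in half-log decrements from a top concentration at or near clinical Cmax (10 microM if undetermined). Targets were multi-cell spheroids of tumour lines plus HUVEC and MSC stromal cells.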

[1] = second compound 0.0316 µM, first compound 0.00316 µM
[2] = second compound 0.0316 µM, first compound 0.01 µM
[3] = second compound 0.0316 µM, first compound 0.0316 µM
[4] = second compound 0.0316 µM, first compound 0.1 µM
[5] = second compound 0.0316 µM, first compound 0.316 µM
[6] = second compound 0.0316 µM, first compound 1 µM
[7] = second compound 0.1 µM, first compound 0.00316 µM
[8] = second compound 0.1 µM, first compound 0.01 µM
[9] = second compound 0.1 µM, first compound 0.0316 µM
[10] = second compound 0.1 µM, first compound 0.1 µM
[11] = second compound 0.1 µM, first compound 0.316 µM
[12] = second compound 0.1 µM, first compound 1 µM
[13] = second compound 0.316 µM, first compound 0.00316 µM
[14] = second compound 0.316 µM, first compound 0.01 µM
[15] = second compound 0.316 µM, first compound 0.0316 µM
[16] = second compound 0.316 µM, first compound 0.1 µM
[17] = second compound 0.316 µM, first compound 0.316 µM
[18] = second compound 0.316 µM, first compound 1 µM
[19] = second compound 1 µM, first compound 0.00316 µM
[20] = second compound 1 µM, first compound 0.01 µM
[21] = second compound 1 µM, first compound 0.0316 µM
[22] = second compound 1 µM, first compound 0.1 µM
[23] = second compound 1 µM, first compound 0.316 µM
[24] = second compound 1 µM, first compound 1 µM
[25] = second compound 0.0316 µM, first compound 0.000949 µM
[26] = second compound 0.0316 µM, first compound 0.003 µM
[27] = second compound 0.0316 µM, first compound 0.00949 µM
[28] = second compound 0.0316 µM, first compound 0.03 µM
[29] = second compound 0.0316 µM, first compound 0.0949 µM
[30] = second compound 0.0316 µM, first compound 0.3 µM
[31] = second compound 0.1 µM, first compound 0.000949 µM
[32] = second compound 0.1 µM, first compound 0.003 µM
[33] = second compound 0.1 µM, first compound 0.00949 µM
[34] = second compound 0.1 µM, first compound 0.03 µM
[35] = second compound 0.1 µM, first compound 0.0949 µM
[36] = second compound 0.1 µM, first compound 0.3 µM
[37] = second compound 0.316 µM, first compound 0.000949 µM
[38] = second compound 0.316 µM, first compound 0.003 µM
[39] = second compound 0.316 µM, first compound 0.00949 µM
[40] = second compound 0.316 µM, first compound 0.03 µM
[41] = second compound 0.316 µM, first compound 0.0949 µM
[42] = second compound 0.316 µM, first compound 0.3 µM
[43] = second compound 1 µM, first compound 0.000949 µM
[44] = second compound 1 µM, first compound 0.003 µM
[45] = second compound 1 µM, first compound 0.00949 µM
[46] = second compound 1 µM, first compound 0.03 µM
[47] = second compound 1 µM, first compound 0.0949 µM
[48] = second compound 1 µM, first compound 0.3 µM
[49] = second compound 3.16 µM, first compound 0.000949 µM
[50] = second compound 3.16 µM, first compound 0.003 µM
[51] = second compound 3.16 µM, first compound 0.00949 µM
[52] = second compound 3.16 µM, first compound 0.03 µM
[53] = second compound 3.16 µM, first compound 0.0949 µM
[54] = second compound 3.16 µM, first compound 0.3 µM
[55] = second compound 10 µM, first compound 0.000949 µM
[56] = second compound 10 µM, first compound 0.003 µM
[57] = second compound 10 µM, first compound 0.00949 µM
[58] = second compound 10 µM, first compound 0.03 µM
[59] = second compound 10 µM, first compound 0.0949 µM
[60] = second compound 10 µM, first compound 0.3 µM
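Note: spheroids exposed to compounds for seven days before readout.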
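Throughout, for viability, T/C: 100% = DMSO vehicle control viability.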

C=CC(=O)N1CCN(c2nc(OCC3CCCN3C)nc3c(F)c(-c4nc(N)cc(C)c4C(F)(F)F)c(Cl)cc23)C(C)C1 (stereo not drawn) + C#Cc1c(F)ccc2cc(O)cc(-c3ncc4c(N5CC6CCC(C5)N6)nc(OCC56CCCN5CC(F)C6)nc4c3F)c12
IC50 (second compound 0.0316 µM): > 1000 nM | IC50 (second compound 0.1 µM): > 1000 nM | IC50 (second compound 0.316 µM): > 1000 nM | IC50 (second compound 1 µM): > 1000 nM | IC50 (second compound 3.16 µM): > 1000 nM | IC50 (second compound 10 µM): > 1000 nM | viability, T/C [1]: 95.7% | viability, T/C [2]: 138% | viability, T/C [3]: 98.9% | viability, T/C [4]: 103% | viability, T/C [5]: 87% | viability, T/C [6]: 104% | viability, T/C [7]: 101% | viability, T/C [8]: 124% | viability, T/C [9]: 90.8% | viability, T/C [10]: 94.2% | viability, T/C [11]: 110% | viability, T/C [12]: 106% | viability, T/C [13]: 94.2% | viability, T/C [14]: 132% | viability, T/C [15]: 84.7% | viability, T/C [16]: 107% | viability, T/C [17]: 87.7% | viability, T/C [18]: 113% | viability, T/C [19]: 88.8% | viability, T/C [20]: 113% | viability, T/C [21]: 81.3% | viability, T/C [22]: 77.1% | viability, T/C [23]: 82.8% | viability, T/C [24]: 84.2% | viability, T/C (second compound 3.16 µM, first compound 0.00316 µM): 65.5% | viability, T/C (second compound 3.16 µM, first compound 0.01 µM): 88.7% | viability, T/C (second compound 3.16 µM, first compound 0.0316 µM): 70% | viability, T/C (second compound 3.16 µM, first compound 0.1 µM): 65.6% | viability, T/C (second compound 3.16 µM, first compound 0.316 µM): 83% | viability, T/C (second compound 3.16 µM, first compound 1 µM): 93.5% | viability, T/C (second compound 10 µM, first compound 0.00316 µM): 52.3% | viability, T/C (second compound 10 µM, first compound 0.01 µM): 73.5% | viability, T/C (second compound 10 µM, first compound 0.0316 µM): 78.3% | viability, T/C (second compound 10 µM, first compound 0.1 µM): 72.4% | viability, T/C (second compound 10 µM, first compound 0.316 µM): 69.5% | viability, T/C (second compound 10 µM, first compound 1 µM): 71%

CC1(C)CCC(Nc2ncc(C(F)(F)F)c(-c3c[nH]c4c(P(C)(C)=O)c(C#N)ccc34)n2)CN1 (stereo not drawn) + C#Cc1c(F)ccc2cc(O)cc(-c3ncc4c(N5CC6CCC(C5)N6)nc(OCC56CCCN5CC(F)C6)nc4c3F)c12
IC50 (second compound 0.0316 µM): 6.41 nM | IC50 (second compound 0.1 µM): 6.67 nM | IC50 (second compound 0.316 µM): 6.82 nM | IC50 (second compound 1 µM): 7.75 nM | IC50 (second compound 3.16 µM): 11.6 nM | IC50 (second compound 10 µM): 2.98 nM | viability, T/C [25]: 87.7% | viability, T/C [26]: 75.5% | viability, T/C [27]: 36.9% | viability, T/C [28]: 33.9% | viability, T/C [29]: 35.6% | viability, T/C [30]: 36.8% | viability, T/C [31]: 77.7% | viability, T/C [32]: 64% | viability, T/C [33]: 44.5% | viability, T/C [34]: 35.6% | viability, T/C [35]: 39.9% | viability, T/C [36]: 40.6% | viability, T/C [37]: 75% | viability, T/C [38]: 68.5% | viability, T/C [39]: 42.5% | viability, T/C [40]: 42.2% | viability, T/C [41]: 43.7% | viability, T/C [42]: 37.6% | viability, T/C [43]: 65.7% | viability, T/C [44]: 64.6% | viability, T/C [45]: 46.1% | viability, T/C [46]: 44.3% | viability, T/C [47]: 54% | viability, T/C [48]: 43% | viability, T/C [49]: 60% | viability, T/C [50]: 59.3% | viability, T/C [51]: 46.5% | viability, T/C [52]: 45.3% | viability, T/C [53]: 50.4% | viability, T/C [54]: 45.7% | viability, T/C [55]: 62.6% | viability, T/C [56]: 50.2% | viability, T/C [57]: 47.2% | viability, T/C [58]: 47.4% | viability, T/C [59]: 52.6% | viability, T/C [60]: 46.5%

CCc1c2c(nc3ccc(O)cc13)-c1cc3c(c(=O)n1C2)COC(=O)[C@]3(O)CC + C#Cc1c(F)ccc2cc(O)cc(-c3ncc4c(N5CC6CCC(C5)N6)nc(OCC56CCCN5CC(F)C6)nc4c3F)c12
IC50 (second compound 0.0316 µM): 4.16 nM | IC50 (second compound 0.1 µM): 4.06 nM | IC50 (second compound 0.316 µM): 3.83 nM | IC50 (second compound 1 µM): 2.73 nM | IC50 (second compound 3.16 µM): 3.14 nM | IC50 (second compound 10 µM): 1.5 nM | viability, T/C [25]: 74.2% | viability, T/C [26]: 56.9% | viability, T/C [27]: 34% | viability, T/C [28]: 20.2% | viability, T/C [29]: 12.5% | viability, T/C [30]: 5.35% | viability, T/C [31]: 97.8% | viability, T/C [32]: 56% | viability, T/C [33]: 31.8% | viability, T/C [34]: 19.4% | viability, T/C [35]: 13.1% | viability, T/C [36]: 6.83% | viability, T/C [37]: 81.1% | viability, T/C [38]: 56.2% | viability, T/C [39]: 30.2% | viability, T/C [40]: 20.6% | viability, T/C [41]: 13.9% | viability, T/C [42]: 6.04% | viability, T/C [43]: 70.8% | viability, T/C [44]: 43% | viability, T/C [45]: 35.9% | viability, T/C [46]: 22.4% | viability, T/C [47]: 11.8% | viability, T/C [48]: 6.08% | viability, T/C [49]: 58.8% | viability, T/C [50]: 54.6% | viability, T/C [51]: 29.1% | viability, T/C [52]: 22.1% | viability, T/C [53]: 14.1% | viability, T/C [54]: 7.99% | viability, T/C [55]: 52.6% | viability, T/C [56]: 49.1% | viability, T/C [57]: 30.1% | viability, T/C [58]: 30.9% | viability, T/C [59]: 20.3% | viability, T/C [60]: 8.91%

C=CC(=O)Nc1cc(Nc2nccc(-c3cn(C)c4ccccc34)n2)c(OC)cc1N(C)CCN(C)C + C=CC(=O)N1CCN(c2nc(OCC3CCCN3C)nc3c(F)c(-c4nc(N)cc(C)c4C(F)(F)F)c(Cl)cc23)C(C)C1
IC50 (second compound 0.00316 µM): > 1000 nM | IC50 (second compound 0.01 µM): > 1000 nM | IC50 (second compound 0.0316 µM): > 1000 nM | IC50 (second compound 0.1 µM): > 1000 nM | IC50 (second compound 0.316 µM): > 1000 nM | IC50 (second compound 1 µM): > 1000 nM | viability, T/C (second compound 0.00316 µM, first compound 0.00316 µM): 105% | viability, T/C (second compound 0.00316 µM, first compound 0.01 µM): 171% | viability, T/C (second compound 0.00316 µM, first compound 0.0316 µM): 121% | viability, T/C (second compound 0.00316 µM, first compound 0.1 µM): 90.5% | viability, T/C (second compound 0.00316 µM, first compound 0.316 µM): 94.2% | viability, T/C (second compound 0.00316 µM, first compound 1 µM): 121% | viability, T/C (second compound 0.01 µM, first compound 0.00316 µM): 137% | viability, T/C (second compound 0.01 µM, first compound 0.01 µM): 150% | viability, T/C (second compound 0.01 µM, first compound 0.0316 µM): 106% | viability, T/C (second compound 0.01 µM, first compound 0.1 µM): 94.1% | viability, T/C (second compound 0.01 µM, first compound 0.316 µM): 80.9% | viability, T/C (second compound 0.01 µM, first compound 1 µM): 128% | viability, T/C [1]: 168% | viability, T/C [2]: 157% | viability, T/C [3]: 88.9% | viability, T/C [4]: 105% | viability, T/C [5]: 87.6% | viability, T/C [6]: 114% | viability, T/C [7]: 135% | viability, T/C [8]: 162% | viability, T/C [9]: 124% | viability, T/C [10]: 87.1% | viability, T/C [11]: 82% | viability, T/C [12]: 108% | viability, T/C [13]: 161% | viability, T/C [14]: 152% | viability, T/C [15]: 99.8% | viability, T/C [16]: 106% | viability, T/C [17]: 74.8% | viability, T/C [18]: 141% | viability, T/C [19]: 145% | viability, T/C [20]: 159% | viability, T/C [21]: 101% | viability, T/C [22]: 115% | viability, T/C [23]: 87.3% | viability, T/C [24]: 109%
